Experimental data from patent publication US10253041B2, “7-phenylethylamino-4H-pyrimido[4,5-d][1,3]oxazin-2-one compounds and their use as mutant IDH1 inhibitors” (Eli Lilly and Company, priority 2015, dated 2019).
Read-outs that look alike come from different tables or passages of the source.

Columns and labels:
IDH1/R132C = molecular target: T1, IDH1/R132C (Homo sapiens, UniProt O75874, R132C); assay: Biochemical assay for IDH1 R132C mutant enzyme (2HG by RapidFire MS); conditions: mean ± standard deviation of the mean; 90 minutes reaction
T1 construct: His-tag (N); made in house; host or cells: E. coli
T1 sequence (O75874 whole entry R132C): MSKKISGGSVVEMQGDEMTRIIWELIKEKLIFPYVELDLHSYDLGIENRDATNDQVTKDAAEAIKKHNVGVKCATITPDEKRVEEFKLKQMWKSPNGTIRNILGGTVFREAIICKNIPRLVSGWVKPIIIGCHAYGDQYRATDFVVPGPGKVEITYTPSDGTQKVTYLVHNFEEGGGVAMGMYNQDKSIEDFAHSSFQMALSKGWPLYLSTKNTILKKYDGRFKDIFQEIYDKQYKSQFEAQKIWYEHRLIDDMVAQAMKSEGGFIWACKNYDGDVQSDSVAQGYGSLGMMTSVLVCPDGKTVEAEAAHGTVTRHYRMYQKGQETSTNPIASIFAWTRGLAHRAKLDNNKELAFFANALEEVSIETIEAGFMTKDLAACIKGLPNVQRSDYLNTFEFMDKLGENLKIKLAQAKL
Description: (§1) IDH1-R132H, IDH1-R132C, IDH2-R172K and IDH2-R140Q mutant enzymes catalyze the conversion of αKG to 2HG. 2HG is analyzed using in-line solid phase extraction and mass spectrometry. This analysis is carried out in a RapidFire® instrument coupled to a 6460 triple quadrupole mass spectrometer (G6460A Agilent).
(§2) IDH1 mutant (R132H and R132C) and IDH2 mutant (R140Q and R172K) proteins containing N-terminal His-tag are expressed in E. coli and purified using nickel affinity chromatography. The enzyme assays are carried out in V-bottom 96 well polypropylene plates containing 100 mM Tris-HCl buffer, 1 mM DTT, 0.005% TRITON™ X-100, 120 mM NaCl. For IDH1 R132H, α-ketoglutarate, NADPH and MnCl2 are included at final concentrations of 300 μM, 2.5 μM and 300 μM respectively. For IDH1 R132C, α-ketoglutarate, NADPH and MnCl2 are included at final concentrations of 100 μM, 10 μM and 100 μM respectively. For IDH2 R172K, α-ketoglutarate, NADPH and MnCl2 are included at final concentrations of 150 μM, 10 μM and 150 μM respectively. For IDH2 R140Q, α-ketoglutarate, NADPH and MnCl2 are included at final concentrations of 3000 μM, 10 μM and 100 μM respectively. Final pH=7.0. Test compound dissolved in DMSO stock is diluted in the reaction mix at a final DMSO concentration of 4%. Compounds are tested in dose-response format. The assay is started by addition of enzyme. Enzymes are used at the following final concentrations: IDH1 R132H, 2 nM; IDH1 R132C, 0.5 nM; IDH2 R172K, 1.2 nM; IDH2 R140Q, 1.2 nM. After 90 minutes the reaction is quenched by adding ACN (50:50) containing 3-hydroxy-1,5-pentanedioic-2,2,3,4,4-d5 acid (5d5-3HG) as an internal standard for mass spectrometry analysis and quantitation of reaction product. 2-Hydroxyglutarate (2HG) in quenched samples is separated using strong anionic exchange column chromatography (Phenomenex Strata-X-A SecurityGuard) and analyzed by mass spectrometry in a 6460 triple quadrupole mass spectrometer (G6460A Agilent). The 2HG signal detected is transformed into an analyte concentration using a calibration curve generated using known 2HG concentrations. […] IC50 values are obtained from the individual % inhibition values at different compound concentrations using a 4-parameter equation. These calculations are carried out using Activity Base (IDBS) or Screener (Genedata) data analysis programs.

IDH2/R172K = molecular target: T2, IDH2/R172K (Homo sapiens, UniProt P48735, R172K); assay: Biochemical assay for IDH2 R172K mutant enzyme (2HG by RapidFire MS); conditions: mean ± standard deviation of the mean; 90 minutes reaction
T2 construct: His-tag (N); made in house; host or cells: E. coli
T2 sequence (P48735 40-452 R172K): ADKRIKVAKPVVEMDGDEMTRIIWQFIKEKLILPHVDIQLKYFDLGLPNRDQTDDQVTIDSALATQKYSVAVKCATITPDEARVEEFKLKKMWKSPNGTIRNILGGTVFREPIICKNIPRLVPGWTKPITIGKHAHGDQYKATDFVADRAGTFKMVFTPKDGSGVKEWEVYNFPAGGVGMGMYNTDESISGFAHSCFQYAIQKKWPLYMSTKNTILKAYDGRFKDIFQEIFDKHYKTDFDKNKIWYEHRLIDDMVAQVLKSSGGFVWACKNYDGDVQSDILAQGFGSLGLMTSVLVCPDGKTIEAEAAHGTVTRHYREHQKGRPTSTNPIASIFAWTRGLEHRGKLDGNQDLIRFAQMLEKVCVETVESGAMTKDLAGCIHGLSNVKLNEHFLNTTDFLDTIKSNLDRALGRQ
Description: as §1, §2

IDH1/R132H = molecular target: T3, IDH1/R132H (Homo sapiens, UniProt O75874, R132H); assay: Biochemical assay for IDH1 R132H mutant enzyme (2HG by RapidFire MS); conditions: mean ± standard deviation of the mean; 90 minutes reaction
T3 construct: His-tag (N); made in house; host or cells: E. coli
T3 sequence (O75874 whole entry R132H): as the sequence (O75874 whole entry R132C) above, with C132H counted along it
Description: as §1, §2

[1] = tested on: IDH1 mutant R132C in fibrosarcoma cell line HT1080; assay: HT1080 cell assay (intracellular 2HG and αKG); assay type: cell-based; conditions: Homo sapiens; for IC50: 1 hour + 18 hours incubation
Description: To test the cellular inhibition of IDH1 mutant R132C, the fibrosarcoma cell line HT1080 (purchased from ATCC) is used. For testing cell-based inhibition of the R132H mutation, the U87MG glioma cell line (ATCC) was stably transfected with a DNA construct expressing the R132H mutant enzyme.
Fifteen thousand cells are plated in poly-D-lys coated 96 well plates (15,000 cells/well) 18-24 hours prior to treatment with compounds. Four hours prior to compound treatment, cells are glutamine-starved by removing normal media and replacing with glutamine-free media. Following starvation, cells are then treated with different concentrations of test compounds (20 μM to 1 nM) dissolved in glutamine free media containing DMSO at a final concentration of 0.2%. The initial compound incubation is for 1 hour at 37° C./5% CO2. After 1 hour, glutamine is added to a final 2 mM concentration and the treated cells are then incubated for a further 18 hours at 37° C./5% CO2. Following the 18 hour incubation, intracellular 2HG and αKG are analyzed in cell lysates. Lysates are prepared following removal of media and addition of buffer containing 25 mM Tris-HCl pH 7.5, 150 mM NaCl, 1 mM EDTA, 1 mM EGTA/1% Triton-X 100 to the cells. An aliquot of lysate is added to a mix of d6-αKG and d5-3HG as internal standards and the mixture is treated with O-benzylhydroxylamine in the presence of N-(3-dimethylaminopropyl)-N′-ethylcarbodiimide hydrochloride (EDC) and pyridine. Analyte derivatives are then extracted with EtOAc, dried, and then reconstituted with 50% MeOH in H2O. Samples prepared as described are injected into the HPLC to separate 2HG and αKG derivatives (and corresponding internal standards) using a reverse phase chromatography in a C18 column. Analysis of the samples is carried out using a 6460 triple quadrupole mass spectrometer (G6460A Agilent). The 2HG and αKG signals detected are transformed into analyte concentration using the ratio of αKG/d6-αKG and the ratio of 2HG/d5-3HG that is extrapolated within a calibration curve. Percent inhibition for each individual sample is obtained after normalizing calculated 2HG or aKG concentration to maximum and minimum references obtained in the presence and in the absence of glutamine during cell treatment with compounds. IC50 values are obtained from individual % inhibition using a sigmoidal dose-response 4-parameter equation. These calculations are carried out automatically using Activity Base (IDBS) or Screener (Genedata) data analysis programs.

[2] = HT-1080, 19 h, intracellular 2HG, read-out: HT1080 (R132C, 2-hydroxyglutarate) IC50
[3] = HT-1080, intracellular αKG, read-out: HT1080 (R132C, αKG) IC50

SMILES	IC50 (IDH1/R132C) [nM]	IC50 (IDH2/R172K) [nM]	IC50 (IDH1/R132H) [nM]	IC50 [1, 2] [nM]	IC50 [1, 3] [nM]	HT1080 (R132C, 2-hydroxyglutarate) IC50 ([1]; HT-1080, 19 h, read-out: HT1080 (R132C, 2-hydroxyglutarate) IC50 (μM), intracellular 2HG, 1 hour + 18 hours incubation) [µM]
C=CC(=O)N1CCC2(CC1)CN(Cc1ccc([C@H](C)Nc3ncc4c(n3)N(C(C)C)C(=O)OC4)cc1)C2 [Example 8, 1-Isopropyl-7-[[(1S)-1-[4-[(7-prop-2-enoyl-2,7-diazaspiro[3.5]nonan-2-yl)methyl]phenyl]ethyl]amino]-4H-pyrimido[4,5-d][1,3]oxazin-2-one]	209 ± 75	51700	290 ± 170	77 ± 42.5	> 20000	
C=CC(=O)N1CC(N(C)Cc2ccc([C@H](C)Nc3ncc4c(n3)N(CC)C(=O)OC4)cc2)C1 [Example 10, 1-Ethyl-7-[[(1S)-1-[4-[[methyl-(1-prop-2-enoylazetidin-3-yl)amino]methyl]-phenyl]ethyl]amino]-4H-pyrimido[4,5-d][1,3]oxazin-2-one]	309 ± 107	6610	260 ± 35	97.8 ± 43.1	> 20000	
C=CC(=O)N1CCN(Cc2ccc([C@H](C)Nc3ncc4c(n3)N([C@H](C)CO)C(=O)OC4)cc2)CC1 [Example 11, 1-[(1R)-2-Hydroxy-1-methyl-ethyl]-7-[[(1S)-1-[4-[(4-prop-2-enoylpiperazin-1-yl)methyl]phenyl]ethyl]amino]-4H-pyrimido[4,5-d][1,3]oxazin-2-one]	119 ± 54.1	7840	80.2 ± 51.9		> 20000	0.0321 ± 0.0108
C=CC(=O)N1CC=C(COc2ccc([C@H](C)Nc3ncc4c(n3)N(CC)C(=O)OC4)cc2)C1 [Example 22, 1-ethyl-7-[[(1S)-1-[4-[(1-prop-2-enoyl-2,5-dihydropyrrol-3-yl)methoxy]phenyl]ethyl]amino]-4H-pyrimido[4,5-d][1,3]oxazin-2-one]	77.1 ± 10.2	469 ± 355		43.1 ± 44	> 20000	

Stronger by IC50 (IDH1/R132C), values ahead:

IC50 (IDH1/R132C) [nM]	IC50 (IDH2/R172K) [nM]	IC50 (IDH1/R132H) [nM]	IC50 [1, 2] [nM]	IC50 [1, 3] [nM]	HT1080 (R132C, 2-hydroxyglutarate) IC50 ([1]; HT-1080, 19 h, read-out: HT1080 (R132C, 2-hydroxyglutarate) IC50 (μM), intracellular 2HG, 1 hour + 18 hours incubation) [µM]	SMILES
44.8 ± 21.9	482	39.7 ± 26	38.7 ± 1.3	> 20000		C=CC(=O)N1CC(CCc2ccc([C@H](C)Nc3ncc4c(n3)N(CC)C(=O)OC4)cc2)C1 [Example 7, 1-Ethyl-7-[[(1S)-1-[4-[2-(1-prop-2-enoylazetidin-3-yl)ethyl]phenyl]ethyl]amino]-4H-pyrimido[4,5-d][1,3]oxazin-2-one]
62.9 ± 18.8	2090	41.7 ± 3.6	32.3 ± 11.7	> 20000		C=CC(=O)N1CC(COc2ccc([C@H](C)Nc3ncc4c(n3)N(C(C)C)C(=O)OC4)cc2)C1 [Example 9, 1-Isopropyl-7-[[(1S)-1-[4-[(1-prop-2-enoylazetidin-3-yl)methoxy]-phenyl]ethyl]amino]-4H-pyrimido[4,5-d][1,3]oxazin-2-one]
